In ChEMBL document CHEMBL5543151, “Rational Design of a Novel Class of Human ClpP Agonists through a Ring-Opening Strategy with Enhanced Antileukemia Activity” (J Med Chem, 2024):

Key:
MV4-11 [1] = test: Anti-leukemia activity against human MV4-11 cells assessed as decrease in cell proliferation incubated for 72 hrs by CCK-8 assay; format: functional, cell-based; settings: MV4-11, 72 h
MV4-11 [2] = test: Potency index, ratio of ONC201 IC50 to test compound IC50 for anti-leukemia activity against human MV4-11 cells assessed as decrease in cell proliferation incubated for 72 hrs by CCK-8 assay; format: functional
[3] = molecular target: T1, ATP-dependent Clp protease proteolytic subunit, mitochondrial (Homo sapiens, UniProt Q16740); test: Agonist activity at human Casein lysing protease P (HsClpP) assessed as proteolytic activity by measuring alpha-casein hydrolysis measured after 2 hrs incubation by fluorescence assay
T1 sequence (Q16740 whole entry): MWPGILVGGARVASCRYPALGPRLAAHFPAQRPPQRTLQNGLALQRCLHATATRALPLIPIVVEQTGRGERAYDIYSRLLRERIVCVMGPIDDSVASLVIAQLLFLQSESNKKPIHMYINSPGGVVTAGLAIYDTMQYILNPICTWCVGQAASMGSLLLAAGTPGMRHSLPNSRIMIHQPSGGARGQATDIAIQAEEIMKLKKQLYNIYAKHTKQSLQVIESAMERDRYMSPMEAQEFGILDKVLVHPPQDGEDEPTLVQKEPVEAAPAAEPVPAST

[4] = molecular target: T1, ATP-dependent Clp protease proteolytic subunit, mitochondrial; test: Binding affinity to human Casein lysing protease P (HsClpP) assessed as change in melting temperature measured after 2 hrs differential scanning fluorimetry (DSF) assay
MV4-11 [5] = test: Anti-leukemia activity against human MV4-11 cells assessed as decrease in cell proliferation incubated for 24 hrs by CCK-8 assay; format: functional, cell-based; settings: MV4-11, 24 h
MV4-11 [6] = test: Anti-leukemia activity against human MV4-11 cells assessed as decrease in cell proliferation incubated for 48 hrs by CCK-8 assay; format: functional, cell-based; settings: MV4-11, 48 h
MOLM-13 = test: Anti-leukemia activity against human MOLM-13 cells assessed as decrease in cell proliferation incubated for 72 hrs by CCK-8 assay; format: functional, cell-based; settings: MOLM-13, 72 h
U-937 = test: Anti-leukemia activity against human U-937 cells assessed as decrease in cell proliferation incubated for 72 hrs by CCK-8 assay; format: functional, cell-based; settings: U-937, 72 h
OCI-AML2 = test: Anti-leukemia activity against human OCI-AML2 cells assessed as decrease in cell proliferation incubated for 72 hrs by CCK-8 assay; format: functional, cell-based; settings: OCI-AML2, 72 h
THP-1 = test: Anti-leukemia activity against human THP-1 cells assessed as decrease in cell proliferation incubated for 72 hrs by CCK-8 assay; format: functional, cell-based; settings: THP-1, 72 h
HL-60 = test: Anti-leukemia activity against human HL-60 cells assessed as decrease in cell proliferation incubated for 72 hrs by CCK-8 assay; format: functional, cell-based; settings: HL-60, 72 h
Kasumi 1 = test: Anti-leukemia activity against human Kasumi 1 cells assessed as decrease in cell proliferation incubated for 72 hrs by CCK-8 assay; format: functional, cell-based; settings: Kasumi 1, 72 h
K562 = test: Anti-leukemia activity against human K562 cells assessed as decrease in cell proliferation incubated for 72 hrs by CCK-8 assay; format: functional, cell-based; settings: K562, 72 h
MV4-11 [7] = test: Induction of apoptosis in human MV4-11 cells assessed as increase in apoptotic (annexin V-positive) cell proportions by measuring apoptotic rate at 120 nM measured after 48 hrs by Annexin V-647/P1 apoptosis detection assay relative to control; format: functional

N#Cc1cccc(CN2CCc3[nH]c(NCc4ccc(F)cc4)nc(=O)c3C2)c1
IC50 (MV4-11 [1]): 30 nM
Ratio IC50 (MV4-11 [2]): 20
EC50 [3]: 970 nM
EC50 [4]: 1370 nM
EC50 (MV4-11 [5]): 5200 nM
EC50 (MV4-11 [6]): 78 nM
IC50 (MOLM-13): 30.1 nM
IC50 (U-937): 78.2 nM
IC50 (OCI-AML2): 39.2 nM
IC50 (THP-1): 79.7 nM
IC50 (HL-60): 40.5 nM
IC50 (Kasumi 1): 41.1 nM
IC50 (K562): 132 nM
Activity (MV4-11 [7]): ~80%
